Measured values reported in ChEMBL document CHEMBL4265889, “Design and synthesis of tetrahydropyridopyrimidine based Toll-Like Receptor (TLR) 7/8 dual agonists” (Bioorg Med Chem Lett, 2018).

Assays:
[1] = molecular target: T1, Toll-like receptor 7 (Homo sapiens) (UniProt Q9NYK1); assay: Agonist activity at human TLR7 expressed in HEK293 cells after 6 hrs by NFkappaB-luciferase reporter gene assay; assay type: cell-based
T1 sequence (whole entry): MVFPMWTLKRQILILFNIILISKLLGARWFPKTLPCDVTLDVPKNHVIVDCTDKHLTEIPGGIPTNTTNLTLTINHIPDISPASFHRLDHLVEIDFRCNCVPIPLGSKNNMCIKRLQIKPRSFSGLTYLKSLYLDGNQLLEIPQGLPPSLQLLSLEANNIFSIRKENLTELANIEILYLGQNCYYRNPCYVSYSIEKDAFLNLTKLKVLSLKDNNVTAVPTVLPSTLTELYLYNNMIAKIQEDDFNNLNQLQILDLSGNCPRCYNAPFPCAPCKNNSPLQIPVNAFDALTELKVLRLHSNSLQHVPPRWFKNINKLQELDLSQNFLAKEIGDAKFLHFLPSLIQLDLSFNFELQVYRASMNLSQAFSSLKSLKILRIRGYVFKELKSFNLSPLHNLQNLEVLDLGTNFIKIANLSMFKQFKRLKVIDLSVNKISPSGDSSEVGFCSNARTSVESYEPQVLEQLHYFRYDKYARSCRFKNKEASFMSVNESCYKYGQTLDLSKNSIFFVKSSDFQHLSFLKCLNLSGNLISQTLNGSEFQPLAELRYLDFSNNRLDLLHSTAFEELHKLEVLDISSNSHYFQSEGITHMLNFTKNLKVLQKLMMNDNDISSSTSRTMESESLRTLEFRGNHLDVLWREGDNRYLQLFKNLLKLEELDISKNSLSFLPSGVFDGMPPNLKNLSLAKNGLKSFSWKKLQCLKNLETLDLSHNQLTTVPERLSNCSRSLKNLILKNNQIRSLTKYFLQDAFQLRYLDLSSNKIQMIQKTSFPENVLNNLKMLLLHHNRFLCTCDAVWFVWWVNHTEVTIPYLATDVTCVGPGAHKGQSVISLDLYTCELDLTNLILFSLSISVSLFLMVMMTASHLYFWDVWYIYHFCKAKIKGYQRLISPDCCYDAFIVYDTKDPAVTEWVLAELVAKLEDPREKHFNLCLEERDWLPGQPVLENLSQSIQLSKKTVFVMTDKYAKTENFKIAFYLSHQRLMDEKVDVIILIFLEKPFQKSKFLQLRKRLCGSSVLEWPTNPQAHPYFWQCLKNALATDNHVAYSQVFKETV

[2] = molecular target: T2, Toll-like receptor 8 (Homo sapiens) (UniProt Q9NR97); assay: Agonist activity at human TLR8 expressed in HEK293 cells after 6 hrs by NFkappaB-luciferase reporter gene assay; assay type: cell-based
T2 sequence (whole entry): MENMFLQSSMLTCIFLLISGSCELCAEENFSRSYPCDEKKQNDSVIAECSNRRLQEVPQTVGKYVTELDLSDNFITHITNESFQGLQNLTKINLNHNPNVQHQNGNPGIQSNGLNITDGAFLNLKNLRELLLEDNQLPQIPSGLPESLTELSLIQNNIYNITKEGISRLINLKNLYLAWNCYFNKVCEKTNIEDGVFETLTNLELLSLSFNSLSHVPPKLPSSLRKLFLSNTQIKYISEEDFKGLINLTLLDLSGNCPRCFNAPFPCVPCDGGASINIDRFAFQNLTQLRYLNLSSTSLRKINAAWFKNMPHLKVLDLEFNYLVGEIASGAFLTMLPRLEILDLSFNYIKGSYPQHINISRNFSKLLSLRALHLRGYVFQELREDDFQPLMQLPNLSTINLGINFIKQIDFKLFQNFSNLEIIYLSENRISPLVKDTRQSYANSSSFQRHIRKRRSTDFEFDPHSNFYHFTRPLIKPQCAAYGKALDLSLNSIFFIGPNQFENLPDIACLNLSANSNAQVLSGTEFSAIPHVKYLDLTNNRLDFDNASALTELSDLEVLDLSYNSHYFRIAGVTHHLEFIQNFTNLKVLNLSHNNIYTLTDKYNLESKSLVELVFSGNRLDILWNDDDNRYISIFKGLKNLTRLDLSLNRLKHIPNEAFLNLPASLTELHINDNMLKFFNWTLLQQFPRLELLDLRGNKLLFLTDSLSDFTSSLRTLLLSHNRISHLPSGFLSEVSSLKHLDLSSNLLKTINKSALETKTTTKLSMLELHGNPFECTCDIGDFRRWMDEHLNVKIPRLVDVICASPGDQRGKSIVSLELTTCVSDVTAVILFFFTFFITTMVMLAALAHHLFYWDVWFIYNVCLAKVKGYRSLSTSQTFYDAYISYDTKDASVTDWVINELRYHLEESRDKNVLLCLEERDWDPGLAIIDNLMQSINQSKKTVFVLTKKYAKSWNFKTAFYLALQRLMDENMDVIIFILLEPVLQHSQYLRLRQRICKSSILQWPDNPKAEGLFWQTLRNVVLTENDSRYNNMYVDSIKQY

[3] = Drug metabolism in human liver microsomes at 1 uM after 15 mins; assay type: ADME, microsome; settings: read-out: Drug metabolism
[4] = Cmax in C57BL/6 mouse liver at 5 mg/kg, po; assay type: ADME, organism-based; parameters: dose 5 mg/kg, route oral
Cytochrome P450 2D6 = Cytochrome P450 2D6 (Homo sapiens, UniProt P10635); assay: Inhibition of CYP2D6 (unknown origin); assay type: ADME
Chain of Cytochrome P450 2D6 (P10635 whole entry): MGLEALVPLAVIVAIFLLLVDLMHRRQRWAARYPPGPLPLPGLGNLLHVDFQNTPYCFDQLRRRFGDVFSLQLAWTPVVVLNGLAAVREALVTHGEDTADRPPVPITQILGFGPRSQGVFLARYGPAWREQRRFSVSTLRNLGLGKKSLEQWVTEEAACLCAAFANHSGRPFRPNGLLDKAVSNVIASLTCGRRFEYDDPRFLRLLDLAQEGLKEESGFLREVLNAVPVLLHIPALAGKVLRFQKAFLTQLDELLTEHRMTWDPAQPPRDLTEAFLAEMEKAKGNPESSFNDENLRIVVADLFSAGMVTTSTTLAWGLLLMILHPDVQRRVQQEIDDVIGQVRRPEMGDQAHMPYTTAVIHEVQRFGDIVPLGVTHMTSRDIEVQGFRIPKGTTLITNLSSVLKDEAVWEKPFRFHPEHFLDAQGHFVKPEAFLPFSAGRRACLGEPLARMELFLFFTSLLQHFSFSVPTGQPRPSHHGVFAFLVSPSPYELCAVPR

Homo sapiens = species on record: Homo sapiens; assay: Binding affinity to serotonin receptor (unknown origin)

Question: Which MEC [1] does the source give for `CCC[C@@H](CCO)Nc1nc(N)nc2c1CN(C(=O)c1csc(C)n1)CC2` here?
Answer: 1.5 µM

Question: And the MEC [2]?
Answer: 3.4 µM

Question: And the metabolised at 0.25 h, 1 µM [3]?
Answer: 21%

Question: What about the Cmax [4] of the same molecule?
Answer: 711 ng/g

Question: What about the IC50 (Cytochrome P450 2D6) of the same molecule?
Answer: > 10 µM

Question: And the Activity (Homo sapiens)?
Answer: > 10 µM
